Experimental data taken from paper PMC2254147, “Novel Triazine JPC-2067-B Inhibits Toxoplasma gondii In Vitro and In Vivo” (PLoS Neglected Tropical Diseases, 2008).
Entries after “also recorded” stand apart in the source; their conditions may differ. Read-outs that look alike come from different tables or passages of the source.

Columns and labels:
Pc DHFR = target: T1, Pc DHFR (Pneumocystis carinii, UniProt P16184); assay: Spectrophotometric DHFR assay, Pneumocystis carinii DHFR; format: biochemical; settings: 37°C; (95% confidence limits); read-out: Pc DHFR IC50
T1 construct: made in house; host or cells: Escherichia coli
T1 sequence (P16184 1-206): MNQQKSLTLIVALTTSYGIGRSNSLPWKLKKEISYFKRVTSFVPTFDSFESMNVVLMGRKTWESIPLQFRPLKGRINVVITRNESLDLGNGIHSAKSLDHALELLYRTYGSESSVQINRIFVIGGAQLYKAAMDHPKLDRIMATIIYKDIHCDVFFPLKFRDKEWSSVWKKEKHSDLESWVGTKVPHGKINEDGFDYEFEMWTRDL
Description: DHFR from Pneumocystis carinii was produced as the recombinant enzyme expressed in Escherichia coli. […] DHFR from T. gondii was isolated directly from RH strain T. gondii grown in culture on Chinese hamster ovary cells lacking DHFR (CHO/dhfr^-, American Type Culture Collection 3952 CL). Organisms were introduced into a confluent monolayer and harvested when the mammalian cells were lysed. The 100,000× g supernate was stored in liquid nitrogen.
The spectrophotometric assay for DHFR was optimized for temperature and concentration of substrate and cofactor for each enzyme. The standard assay contained Na phosphate buffer pH 7.4 (40.7 mM), 2-mercaptoethanol (8.9 mM), NADPH (0.117 mM), dihydrofolic acid (0.09 mM), KCL (150 mM), and sufficient enzyme to produce a change in OD340 of 0.035/minute at 37°C. The reaction was continuously recorded for 3 minutes. […] The low background activity in the absence of dihydrofolic acid was subtracted from all rates.
DHFR was assayed with several concentrations of inhibitor to produce rates ranging from 1 to 90% of the uninhibited rate. At least three concentrations were required for calculation; most curves contained five concentrations.

T. gondii = assay: Cidal test: cultures kept 52 days after removing compound on the 4th day; format: cell-based, Toxoplasma gondii; settings: exposed 4 days, compound removed, cultured 52 days
Description: In separate experiments, to determine whether JPC-2067-B would be cidal for T. gondii, cultures were maintained for 52 days after removing JPC-2067-B on the 4th day of culture.

hDHFR = target: T2, hDHFR (Homo sapiens, UniProt P00374); assay: Plate reader DHFR assay, recombinant human DHFR; format: biochemical
T2 construct: made in house
T2 sequence (P00374 1-187): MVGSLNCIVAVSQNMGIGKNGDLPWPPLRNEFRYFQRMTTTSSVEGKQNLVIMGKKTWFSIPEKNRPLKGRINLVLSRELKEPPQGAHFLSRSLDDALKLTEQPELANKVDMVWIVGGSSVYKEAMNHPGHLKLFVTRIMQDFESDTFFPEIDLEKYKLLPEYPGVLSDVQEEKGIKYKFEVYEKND
Description: DHFR from T. gondii prepared as above was also directly compared to purified recombinant P. falciparum DHFR (pfDHFR) and purified recombinant human DHFR (hDHFR). The hDHFR was from pDFR plasmid. The enzyme was purified following ammonium sulfate precipitation, methotrexate:agarose affinity chromatography, and finally a Superdex 200 size exclusion column. The pfDHFR isolation methods were those reported previously,[44]. […] The same buffer as used in the other assays comparing T. gondii DHFR with DHFRs from rat liver P. carinii and M. avium intracellulare was used but the maximal activity, temperature, and length of observation were adjusted for assays on the specific plate reader. […] The reaction was setup at 23°C, the plate loaded, and the OD340 recorded at 20 second intervals for 10 minutes. The first 8 minutes were used to generate linear fit slopes in Excel. […] Results are expressed as the percent of control activity versus log concentration of inhibitor. Prism 5.0 was used to generate curves from 12 different concentrations of inhibitor using a non-linear fit method.

CC1(C)N=C(N)N=C(N)N1OCCCOc1ccc(OC(F)(F)F)cc1Cl [JPC-2067-B, 4,6-diamino-1,2-dihydro-2,2-dimethyl-1-(3′(2-chloro-, 4-trifluoromethoxyphenoxy)propyloxy)-1,3,5-triazine]
IC50 (Pc DHFR): 3.93 nM
Plaques or growth of parasites after removal of compound (cidal effect) (T. gondii): No plaques or Toxoplasma were seen throughout 52 days of culture; also recorded: No plaques or growth of parasites were detected
IC50 (hDHFR; recombinant, 23°C, (95% Confidence Intervals), read-out: hDHFR IC50): 148 nM
IC50 (hDHFR; text to Figure 5 and Table 2, read-out: IC50 for human DHFR): 150 nM
